Read-outs that look alike come from different tables or passages of the source.

In this test the target is P2X7 (Homo sapiens (Human), UniProt Q99572). Nature of the test: P2X7 antagonism in human peripheral blood mononuclear cells (PBMCs), IL-1β release. The test is classed as cell-based. Particulars: LPS 30 ng/ml + Bz-ATP 0.5 mM; for remaining activity at 10 µM: read-out: PBMC 10 μM (% control). As for the experimental part:
P2X7 Antagonism in Human Peripheral Blood Mononuclear Cells (PBMCs) and Human Whole Blood.
Human blood was collected using a blood donor program. PBMCs were isolated from blood using a Ficoll density gradient technique. Briefly, blood was laid on Ficoll solution and centrifuged at RT for 20 minutes at 2000 rpm. The buffy layer (between red blood cells and plasma) was carefully collected by aspiration, washed with PBS and centrifuged again at 1500 rpm for 15 minutes. The resulting cell pellet was washed and plated on 96 well-plates for experiments. For the Human Whole Blood experiments, 150 μl of human blood was platted on 96 well-plates. Lipopolysaccharide (LPS) (30 ng/ml) was added to each well and incubated for 1 hour. Test compounds were then added and incubated for 30 minutes. The P2X7 agonist, 2′(3′)-O-(4-benzoylbenzoyl) adenosine 5′-triphosphate (Bz-ATP) was then added at a final concentration of 0.5 mM (PBMC) or 1 mM (blood). Cells were incubated for an additional 1.5 hours. At that point, supernatant was collected and stored for IL-1β assay using manufacturer's protocol for enzyme-linked immunosorbent assay (ELISA). Data was expressed as percent control, where control is defined as the difference in IL-1β release in LPS+Bz-ATP samples and LPS only samples. Data was plotted as response (% control) versus concentration to generate IC50 values. […] Data are analyzed and graphed on Graphpad Prism 5. For analysis, each concentration point is averaged from triplicate values and the averaged values are plotted on Graphpad Prism.

Where [1] appears, read: P2X7, Table 2 (additional runs), 10 μM compound.

P2X7, sequence (Q99572 whole entry): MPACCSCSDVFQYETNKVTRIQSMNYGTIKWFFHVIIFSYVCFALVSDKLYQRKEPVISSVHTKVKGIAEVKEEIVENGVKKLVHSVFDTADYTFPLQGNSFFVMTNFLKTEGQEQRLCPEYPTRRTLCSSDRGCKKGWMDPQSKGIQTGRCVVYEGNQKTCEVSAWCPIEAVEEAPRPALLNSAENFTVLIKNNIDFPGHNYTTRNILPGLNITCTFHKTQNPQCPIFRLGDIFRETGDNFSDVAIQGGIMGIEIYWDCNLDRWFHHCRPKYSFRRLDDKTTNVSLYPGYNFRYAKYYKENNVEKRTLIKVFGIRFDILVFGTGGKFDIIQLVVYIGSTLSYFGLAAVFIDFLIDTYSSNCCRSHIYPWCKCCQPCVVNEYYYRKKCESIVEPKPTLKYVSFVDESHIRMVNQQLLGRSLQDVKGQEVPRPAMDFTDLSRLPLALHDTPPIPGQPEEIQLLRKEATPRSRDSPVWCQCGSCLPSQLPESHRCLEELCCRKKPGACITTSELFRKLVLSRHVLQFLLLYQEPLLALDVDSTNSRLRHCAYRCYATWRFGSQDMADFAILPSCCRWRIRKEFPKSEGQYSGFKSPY

For `O=C(c1cccc(C(F)(F)F)c1Cl)N1[C@H]2CCC[C@@H]1c1nnc(-c3ncccn3)n1C2` (stereo in doubt) [Example 2, (6S*,10R*)-11-{[2-Chloro-3-(trifluoromethyl)phenyl]carbonyl}-3-pyrimidin-2-yl-5,6,7,8,9,10-hexahydro-6,10-epimino[1,2,4]triazolo[4,3-a]azocine], the remaining activity at 10 µM worked out at 45.7% (P2X7, Table 1, 10 μM compound) and 45.7% under setting [1].

For the compound `O=C(c1cccc(C(F)(F)F)c1Cl)N1[C@@H]2CCC[C@H]1c1nnc(-c3ncccn3)n1C2` (stereo in doubt) [Example 3, (6R*,10S*)-11-{[2-Chloro-3-(trifluoromethyl)phenyl]carbonyl}-3-pyrimidin-2-yl-5,6,7,8,9,10-hexahydro-6,10-epimino[1,2,4]triazolo[4,3-a]azocine], the remaining activity at 10 µM is 8.9% (P2X7, Table 1, 10 μM compound) and 8.9% under setting [1].

On to `O=C(c1cccc(C(F)(F)F)c1Cl)N1[C@H]2CCC[C@@H]1c1nnc(-c3ccc(F)cc3)n1C2` (stereo in doubt) [Example 5, (6S*,10R*)-11-{[2-Chloro-3-(trifluoromethyl)phenyl]carbonyl}-3-(4-fluorophenyl)-5,6,7,8,9,10-hexahydro-6,10-epimino[1,2,4]triazolo[4,3-a]azocine], for which the remaining activity at 10 µM reads like this: (P2X7, Table 1, 10 μM compound) -4.4%; under setting [1], -4.4%.

As to `O=C(c1cccc(C(F)(F)F)c1Cl)N1[C@H]2CCC[C@@H]1c1nnc(-c3cscn3)n1C2` (stereo in doubt) [Example 8, (6S*,10R*)-11-{[2-Chloro-3-(trifluoromethyl)phenyl]carbonyl}-3-(1,3-thiazol-4-yl)-5,6,7,8,9,10-hexahydro-6,10-epimino[1,2,4]triazolo[4,3-a]azocine], the remaining activity at 10 µM was found to be 7.3% (P2X7, Table 1, 10 μM compound) and 7.3% under setting [1].

`O=C(c1cccc(C(F)(F)F)c1Cl)N1[C@@H]2CCC[C@H]1c1nnc(-c3cscn3)n1C2` (stereo in doubt) [Example 9, (6R*,10S*)-11-{[2-Chloro-3-(trifluoromethyl)phenyl]carbonyl}-3-(1,3-thiazol-4-yl)-5,6,7,8,9,10-hexahydro-6,10-epimino[1,2,4]triazolo[4,3-a]azocine]: the remaining activity at 10 µM came out at 7.3% (P2X7, Table 1, 10 μM compound) and 7.3% under setting [1].

Consider `O=C(c1cccc(C(F)(F)F)c1Cl)N1[C@H]2CCC[C@@H]1c1nnc(-c3ccc(F)cn3)n1C2` (stereo in doubt) [Example 11, (6S*,10R*)-11-{[2-Chloro-3-(trifluoromethyl)phenyl]carbonyl}-3-(5-fluoropyridin-2-yl)-5,6,7,8,9,10-hexahydro-6,10-epimino[1,2,4]triazolo[4,3-a]azocine], for which the remaining activity at 10 µM stood at 38.9% (P2X7, Table 1, 10 μM compound) and 38.9% under setting [1].

`O=C(c1cccc(C(F)(F)F)c1Cl)N1[C@@H]2CCC[C@H]1c1nnc(-c3ccc(F)cn3)n1C2` (stereo in doubt) [Example 12, (6R*,10S*)-11-{[2-Chloro-3-(trifluoromethyl)phenyl]carbonyl}-3-(5-fluoropyridin-2-yl)-5,6,7,8,9,10-hexahydro-6,10-epimino[1,2,4]triazolo[4,3-a]azocine]: the remaining activity at 10 µM is -0.8% (P2X7, Table 1, 10 μM compound) and 3.6% under setting [1].

With `O=C(c1cccc(C(F)(F)F)c1Cl)N1[C@H]2CCC[C@@H]1c1nnc(-c3cccnc3)n1C2` (stereo in doubt) [Example 14, (6S*,10R*)-11-{[2-Chloro-3-(trifluoromethyl)phenyl]carbonyl}-3-pyridin-3-yl-5,6,7,8,9,10-hexahydro-6,10-epimino[1,2,4]triazolo[4,3-a]azocine], the remaining activity at 10 µM came to 2.4% (P2X7, Table 1, 10 μM compound) and 2.4% under setting [1].

As for `O=C(c1cccc(C(F)(F)F)c1Cl)N1[C@@H]2CCC[C@H]1c1nnc(-c3ncc(F)cn3)n1C2` (stereo in doubt) [Example 18, (6R*,10S*)-11-{[2-Chloro-3-(trifluoromethyl)phenyl]carbonyl}-3-(5-fluoropyrimidin-2-yl)-5,6,7,8,9,10-hexahydro-6,10-epimino[1,2,4]triazolo[4,3-a]azocine], the remaining activity at 10 µM (P2X7, Table 1, 10 μM compound) was -9% and the remaining activity at 10 µM under setting [1] was -9%.

For the compound `O=C(c1ccc(Cl)cc1Cl)N1[C@@H]2CCC[C@H]1c1nnc(-c3ncc(F)cn3)n1C2` (stereo in doubt) [Example 21, (6R*,10S*)-11-[(2,4-Dichlorophenyl)carbonyl]-3-(5-fluoropyrimidin-2-yl)-5,6,7,8,9,10-hexahydro-6,10-epimino[1,2,4]triazolo[4,3-a]azocine], the remaining activity at 10 µM runs as follows: (P2X7, Table 1, 10 μM compound) -2.1%; under setting [1], -2.1%.

Regarding `Cc1cccc(-c2nnc3n2C[C@@H]2CCC[C@H]3N2C(=O)c2cccc(C(F)(F)F)c2Cl)n1` (stereo in doubt) [Example 23, (6S*,10R*)-11-{[2-Chloro-3-(trifluoromethyl)phenyl]carbonyl}-3-(6-methylpyridin-2-yl)-5,6,7,8,9,10-hexahydro-6,10-epimino[1,2,4]triazolo[4,3-a]azocine], the remaining activity at 10 µM (P2X7, Table 1, 10 μM compound) came out at 8% and the remaining activity at 10 µM under setting [1] is 8%.

Regarding `Cc1cccc(-c2nnc3n2C[C@H]2CCC[C@@H]3N2C(=O)c2cccc(C(F)(F)F)c2Cl)n1` (stereo in doubt) [Example 24, (6R*,10S*)-11-{[2-Chloro-3-(trifluoromethyl)phenyl]carbonyl}-3-(6-methylpyridin-2-yl)-5,6,7,8,9,10-hexahydro-6,10-epimino[1,2,4]triazolo[4,3-a]azocine], the remaining activity at 10 µM runs as follows: (P2X7, Table 1, 10 μM compound) 32.7%; under setting [1], 32.7%.

With `COc1ccnc(-c2nnc3n2C[C@@H]2CCC[C@H]3N2C(=O)c2cccc(C(F)(F)F)c2Cl)c1` (stereo in doubt) [Example 26, (6S*,10R*)-11-{[2-Chloro-3-(trifluoromethyl)phenyl]carbonyl}-3-(4-methoxypyridin-2-yl)-5,6,7,8,9,10-hexahydro-6,10-epimino[1,2,4]triazolo[4,3-a]azocine], the remaining activity at 10 µM by setting is: (P2X7, Table 1, 10 μM compound) 9.2%; under setting [1], 9.2%.

In the case of `COc1ccnc(-c2nnc3n2C[C@H]2CCC[C@@H]3N2C(=O)c2cccc(C(F)(F)F)c2Cl)c1` (stereo in doubt) [Example 27, (6R*,10S*)-11-{[2-Chloro-3-(trifluoromethyl)phenyl]carbonyl}-3-(4-methoxypyridin-2-yl)-5,6,7,8,9,10-hexahydro-6,10-epimino[1,2,4]triazolo[4,3-a]azocine], the remaining activity at 10 µM is, setting by setting: (P2X7, Table 1, 10 μM compound) 4.8%; under setting [1], 4.8%.

On to `O=C(c1ccnc(C(F)(F)F)c1Cl)N1[C@H]2CCC[C@@H]1c1nnc(-c3cccs3)n1C2` (stereo in doubt) [Example 35, (6S*,10R*)-11-{[3-Chloro-2-(trifluoromethyl)pyridin-4-yl]carbonyl}-3-thiophen-2-yl-5,6,7,8,9,10-hexahydro-6,10-epimino[1,2,4]triazolo[4,3-a]azocine], for which the remaining activity at 10 µM under setting [1] turned out to be 82.2%. Besides, for the setting “Table 1, 10 μM compound”, the “PBMC 10 μM (% control)” value was found to be 82.2 % control.

`O=C(c1ccnc(C(F)(F)F)c1Cl)N1[C@@H]2CCC[C@H]1c1nnc(-c3cccs3)n1C2` (stereo in doubt) [Example 36, (6R*,10S*)-11-{[3-Chloro-2-(trifluoromethyl)pyridin-4-yl]carbonyl}-3-thiophen-2-yl-5,6,7,8,9,10-hexahydro-6,10-epimino[1,2,4]triazolo[4,3-a]azocine]: the remaining activity at 10 µM reads like this: (P2X7, Table 1, 10 μM compound) -1.2%; under setting [1], -1.2%.

For the compound `Cc1ccc(-c2nnc3n2C[C@H]2CCC[C@@H]3N2C(=O)c2ccnc(C(F)(F)F)c2Cl)s1` (stereo in doubt) [Example 39, (6R*,10S*)-11-{[3-Chloro-2-(trifluoromethyl)pyridin-4-yl]carbonyl}-3-(5-methylthiophen-2-yl)-5,6,7,8,9,10-hexahydro-6,10-epimino[1,2,4]triazolo[4,3-a]azocine], the remaining activity at 10 µM was 5.8% (P2X7, Table 1, 10 μM compound) and 5.8% under setting [1].

On to `Cc1nc(-c2nnc3n2C[C@H]2CCC[C@@H]3N2C(=O)c2cccc(C(F)(F)F)c2Cl)ccc1F` (stereo in doubt) [Example 193, (6R,10S)-11-{[2-Chloro-3-(trifluoromethyl)phenyl]carbonyl}-3-(5-fluoro-6-methylpyridin-2-yl)-5,6,7,8,9,10-hexahydro-6,10-epimino[1,2,4]triazolo[4,3-a]azocine], for which the remaining activity at 10 µM under setting [1] was -13.8%.

With `Cc1ccnc(-c2nnc3n2C[C@H]2CCC[C@@H]3N2C(=O)c2cccc(C(F)(F)F)c2Cl)c1` (stereo in doubt) [Example 194, (6R,10S)-11-{[2-Chloro-3-(trifluoromethyl)phenyl]carbonyl}-3-(4-methylpyridin-2-yl)-5,6,7,8,9,10-hexahydro-6,10-epimino[1,2,4]triazolo[4,3-a]azocine], the remaining activity at 10 µM under setting [1] was -13%.

(Values after US10053462B2, “P2X7 modulators” (Jansssen Pharmaceutica NV, priority 2013, dated 2018).)
